{"source": "patent US11104589B2", "about": "“Recycling method of amphiphilic surface-active pollutants in water” (INSTITUTE OF PROCESS ENGINEERING, CHINESE ACADEMY OF …, priority 2018, dated 2021)", "test_system": "Human lung cancer cell line A549 cells", "experiment": "MTT cytotoxicity assay", "assay_type": "cell-based", "conditions": "24 hours incubation", "description": "Human lung cancer cell line A549 cells were grown in DMEM medium supplemented with 10% (v/v) of fetal bovine serum (FBS) and 1% of penicillin streptomycin. A549 was first incubated at 37° C. for 24 hours with a density of 5000 cells per well. After being washed with phosphate buffered saline (PBS, pH=7.4), A549 cells were incubated together with 200 μL of medium having various concentrations for 24 hours (15 μ[…]). Three sets of parallel replicates were prepared for each concentration. Then, the medium was removed and replaced with 20 μL of MTT solution (5 mg/mL). A549 cells were further incubated for 3 hours. The medium having MTT was removed and replaced with 100 μL of DMSO. The plate was then shaken for 10 minutes. To assess cell viability, the optical density of the mixture at 492 nm was measured by an enzyme-linked immunosorbent assay spectrophotometer (infinite […]). For labeling, A549 cells were incubated at 37° C. for 24 hours in a cell culture dish with glass bottom at a density of 5000 cells/well and then mixed with prepared FCNs samples. […] The cell culture dish with glass bottom was covered with a tin foil until cell images were obtained by fluorescence microscopy under excitation at 408 nm, 488 nm and 561 nm.", "data": [{"molecule": "CCCCCCCCC(=O)O", "note": "[nonanoic acid]", "values": [{"measurement": "toxicity to the cells (cytotoxicity, MTT)", "setting": "concentration greater than 3840 μM", "value": "significant toxicity to the cells"}, {"measurement": "effect on cell viability (cytotoxicity, MTT)", "setting": "low concentration (15-240 μM)", "value": "almost no effect on cell viability"}]}]}
